Assay results reported in patent US5506122A, “Process for producing nucleosides” (Yamasa Shoyu Kabushiki Kaisha, priority 1989, dated 1996).
Read-outs that look alike come from different tables or passages of the source.

Key:
[1] = target: T1, pyrimidine nucleoside phosphorylase (Geobacillus stearothermophilus, UniProt P77836); assay: Substrate specificity: phosphorolysis of pyrimidine nucleoside substrates by purified enzyme; format: biochemical, Bacillus stearothermophilus TH6-2; details: for Amount of Base Formed / Relative Activity: 10 mM nucleoside, 50 mM potassium dihydrogenphosphate, pH 8.0, 50° C., 10 minutes; for Substrate specificity of pyrimidine nucleoside phosphorylase, in words: within the range tested
T1 construct: nucleoside phosphorylase obtained by extraction/purification from Bacillus stearothermophilus TH6-2; endogenous in cells; host or cells: Bacillus stearothermophilus TH6-2 (FERM BP-2758), enzyme purified in house from the wild cells
T1 sequence (P77836 1-433): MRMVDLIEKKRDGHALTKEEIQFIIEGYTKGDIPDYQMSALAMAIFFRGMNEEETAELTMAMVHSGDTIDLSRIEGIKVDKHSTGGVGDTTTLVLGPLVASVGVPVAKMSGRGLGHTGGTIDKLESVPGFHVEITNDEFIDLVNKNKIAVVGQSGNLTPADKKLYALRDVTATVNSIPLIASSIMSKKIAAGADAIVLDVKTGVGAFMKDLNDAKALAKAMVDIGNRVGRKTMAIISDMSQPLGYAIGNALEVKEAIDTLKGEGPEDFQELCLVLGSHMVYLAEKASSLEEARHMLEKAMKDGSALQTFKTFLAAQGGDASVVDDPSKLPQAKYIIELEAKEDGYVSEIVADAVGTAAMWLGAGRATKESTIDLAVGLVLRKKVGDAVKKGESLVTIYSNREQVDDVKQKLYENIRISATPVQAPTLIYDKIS
Method: Except for using uridine in place of inosine in the substrate solution and quantitating uracil according to the HPLC method, the same method as in the above-described assay of purine nucleoside phosphorylase activity is conducted. The amount of enzyme forming 1 μmol of uracil per one minute is defined as one unit.
(§1) By the use of an aqueous solution of pH 8.0 containing 10 mM of a nucleoside and 50 mM of potassium dihydrogenphosphate as a substrate solution, the reaction is carried out at 50° C. for 10 minutes, and after the reaction, except for quantitating the base of the nucleoside according to the HPLC method, the same method as in the assay of purine nucleoside phosphorylase activity is conducted.

[2] = target: T2, purine nucleoside phosphorylase (Geobacillus stearothermophilus, UniProt P77834); assay: Substrate specificity: phosphorolysis of purine nucleoside substrates by purified enzyme; format: biochemical, Bacillus stearothermophilus TH6-2; details: for activity at 10000 µM: 10 min; for Substrate specificity of purine nucleoside phosphorylase, in words: within the range tested
T2 construct: nucleoside phosphorylase obtained by extraction/purification from Bacillus stearothermophilus TH6-2; endogenous in cells; host or cells: Bacillus stearothermophilus TH6-2 (FERM BP-2758), enzyme purified in house from the wild cells
T2 sequence (P77834 1-274): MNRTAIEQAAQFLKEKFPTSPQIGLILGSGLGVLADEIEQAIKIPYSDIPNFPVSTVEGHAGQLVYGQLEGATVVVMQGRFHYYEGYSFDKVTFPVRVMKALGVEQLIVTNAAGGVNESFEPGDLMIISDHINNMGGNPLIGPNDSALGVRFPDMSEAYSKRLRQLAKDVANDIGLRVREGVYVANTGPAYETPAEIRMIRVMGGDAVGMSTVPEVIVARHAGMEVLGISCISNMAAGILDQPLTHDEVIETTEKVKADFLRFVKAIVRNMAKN
Method: Into 1.0 ml of a substrate solution (aqueous solution of pH 8.0 containing 20 mM inosine and 0.1M potassium dihydrogenphosphate) is added 20 μl of an enzyme solution (50 mM acetate buffer (pH 6.0) containing 1 μg of purified enzyme), and the reaction is carried out at 50° C. for 10 minutes. Then the reaction is stopped by addition of HCl to a final concentration of 0.1N, and also cooling at 0° C. for 10 minutes. Next, the reaction is subjected to centrifugation, and the supernatant obtained is then subjected to the HPLC method (column: YMC A-312 (manufactured by Yamamura Kagaku Kenkyusho, K.K.), eluent: 20 mM Tris-HCl buffer (pH 7.5) containing 5.0% acetonitrile, detection: 260 nm) to quantitate the hypoxanthine formed. The enzyme amount forming 1 μmol of hypoxanthine per one minute is defined as one unit ("U").
as §1

[3] = 10 mM nucleoside, 50 mM potassium dihydrogenphosphate, pH 8.0, 50° C., 10 minutes
[4] = 10 mM nucleoside, 50 mM potassium dihydrogenphosphate, pH 8.0, 50° C., 10 minutes, read-out: Relative Activity
[5] = pH 8, read-out: Relative Activity

Row | Structure (SMILES) | Amount of Base Formed [1] | Relative Activity [1] | Amount of Base Formed [2, 3] | activity at 10000 µM [2, 4] | other results
1 | Cc1cn([C@H]2C[C@H](O)[C@@H](CO)O2)c(=O)[nH]c1=O [Thymidine] | 1.71 μmol/10 min. | 67% | – | – | Substrate specificity of pyrimidine nucleoside phosphorylase, in words [1]: specific
2 | Cc1cn([C@@H]2O[C@H](CO)[C@@H](O)[C@H]2O)c(=O)[nH]c1=O [Ribofuranosyl thymine] | – | 38% | – | – | –
3 | O=c1[nH]cc([C@@H]2O[C@H](CO)[C@@H](O)[C@H]2O)c(=O)[nH]1 [Pseudouridine] | 0 μmol/10 min. | 0% | – | – | –
4 | O=c1ccn([C@@H]2O[C@H](CO)[C@@H](O)[C@@H]2O)c(=O)[nH]1 [Arabinofuranosyl uracil] | – | 0% | – | – | –
5 | OC[C@H]1O[C@@H](n2cnc3c(O)ncnc32)[C@H](O)[C@@H]1O [Inosine] | – | – | 2.55 μmol/10 min. | 100% | Substrate specificity of purine nucleoside phosphorylase, in words [2]: specific
6 | Nc1nc2c(ncn2[C@@H]2O[C@H](CO)[C@@H](O)[C@H]2O)c(=O)[nH]1 [Guanosine] | – | – | 2.15 μmol/10 min. | 84% | Substrate specificity of purine nucleoside phosphorylase, in words [2]: specific
7 | OC[C@H]1O[C@@H](n2cnc3c(O)ncnc32)C[C@@H]1O [2'-Deoxyinosine] | – | – | 2.54 μmol/10 min. | 100% | Substrate specificity of purine nucleoside phosphorylase, in words [2]: specific
8 | Nc1ncnc2c1ncn2[C@@H]1O[C@H](CO)C[C@H]1O [3'-Deoxyadenosine] | – | – | 0 μmol/10 min. | 0% | –
9 | OC[C@@H]1C[C@@H](O)[C@H](n2cnc3c(O)ncnc32)O1 [3'-Deoxyinosine] | – | – | 0 μmol/10 min. | 0% | –
10 | O=c1ccn([C@H]2C[C@H](O)[C@@H](CO)O2)c(=O)[nH]1 [2'-Deoxyuridine] | 2.55 μmol/10 min. | 100% | – | – | Substrate specificity of pyrimidine nucleoside phosphorylase, in words [1]: specific
11 | Nc1ncnc2c1ncn2[C@H]1C[C@H](O)[C@@H](CO)O1 [2'-Deoxyadenosine] | – | – | 0 μmol/10 min. | 0% | –
12 | Nc1ncnc2c1ncn2[C@@H]1O[C@H](CO)[C@@H](O)[C@H]1O [Adenosine] | – | – | 0.15 μmol/10 min. | – | activity at 10000 µM [2, 5]: 5%; Substrate specificity of purine nucleoside phosphorylase, in words [2]: does not recognize them as the substrate
13 | O=c1ccn([C@@H]2O[C@H](CO)[C@@H](O)[C@H]2O)c(=O)[nH]1 [Uridine] | 1.73 μmol/10 min. | 68% | – | – | Substrate specificity of pyrimidine nucleoside phosphorylase, in words [1]: specific
14 | Nc1ccn([C@@H]2O[C@H](CO)[C@@H](O)[C@H]2O)c(=O)n1 [Cytidine] | 0 μmol/10 min. | 0% | – | – | Substrate specificity of pyrimidine nucleoside phosphorylase, in words [1]: does not recognize them as the substrate
15 | Nc1nc2c(ncn2[C@H]2C[C@H](O)[C@@H](CO)O2)c(=O)[nH]1 [2'-Deoxyguanosine] | – | – | 2.18 μmol/10 min. | 85% | Substrate specificity of purine nucleoside phosphorylase, in words [2]: specific
16 | Nc1ncnc2c1ncn2[C@@H]1O[C@H](CO)[C@@H](O)[C@@H]1O [Arabinofuranosyl adenine] | – | – | – | – | activity at 10000 µM [2, 5]: 0%
17 | O=c1ccn2c(n1)O[C@H]1[C@H](O)[C@@H](CO)O[C@H]12 [Cyclouridine] | 0 μmol/10 min. | 0% | – | – | –
18 | Nc1ccn([C@H]2C[C@H](O)[C@@H](CO)O2)c(=O)n1 [2'-Deoxycytidine] | 0 μmol/10 min. | 0% | – | – | –
